# Publication PMC12426922, “Fingerprinting the Intestinal Transport of Low-Molecular-Mass Advanced Glycation End-Products (AGEs) Using a Caco‑2 Transwell Model” (Journal of Agricultural and Food Chemistry, 2025)
# Like-named read-outs stand apart in the source and are kept apart here. Marks after values point to notes of the source that are not given here.
# Assays:
# [1] = test system: differentiated Caco-2 cells; assay: WST-1 cytotoxicity assay, viability of differentiated Caco-2 cells after 2 h exposure; format: cell-based, Human; details: for the mixture: concentration of each AGE
# Protocol: (§1) Human colon carcinoma cells (Caco-2 cells) were obtained from the American Type Culture Collection (ATCC, Rockville, MD, USA). Caco-2 cells were cultured in complete culture medium, composed of DMEM GlutaMAX with 10% FBS (v/v), 1% P/S (v/v), and 1% NEAA (v/v) at 37 °C in a 5% (v/v) CO2 incubator. In this study, Caco-2 cells within passages 10–15 were utilized.
# The WST-1 assay was used to quantify the viability of differentiated Caco-2 cells upon exposure to the individual AGEs and their equimolar mixture. To this end, Caco-2 cells were seeded in 96-well plates at 3 × 10^4 cells/well (100 μL) and incubated at 37 °C under 5% (v/v) CO2 for 20 days. The complete culture medium was refreshed on each alternate day. After full differentiation, the culture medium was removed, and the cells were washed with HBSS (containing 1% (v/v) HEPES) twice on the testing day. The same volume (100 μL) of HBSS containing a series of concentrations of the different individual test compounds or of a mixture containing all 10 AGEs was added from a 20-times-concentrated stock solution in HBSS. The test concentrations were designed based on the estimated daily intake of total AGEs (0.55–0.66 mg/(kg·day)) and high-exposure scenarios (1.4–1.8 mg/(kg day)). […] After exposure for 2 h, the absorbance at 440 and 620 nm was measured in a plate spectrophotometer (Molecular Devices, San Jose, CA, USA, Spectra Max M2). After measurement, the cell viability was calculated as cell viability (%)=(Atested 440 nm−Atested 620 nm)/(Acontrol 440 nm−Acontrol 620 nm)×100
# [2] = Transport of AGE mixture across Caco-2 cell layer (transwell, apical to basolateral); format: in vitro ADME, Human; details: human; for recovery at 2 h, 100 μmol/L: read-out: percentage of the amount added at the apical side at t = 0: recovery; for Papp at 120 min, 100 μmol/L: data from 120 min
# Protocol: as §1
# (§2) Caco-2 cells were cultured until reaching 50%–60% confluence (undifferentiated Caco-2 cells), followed by trypsinization. Then, cells were seeded at 3 × 10^4 cells per insert in 100 μL of complete culture medium into the transwell inserts of a 24-well transwell plate, and 600 μL of complete culture medium was added to the basolateral compartments. In both the apical and basolateral compartments, the medium was renewed every other day. After 2 weeks, the transepithelial electrical resistance (TEER) value was measured using a Millicell ERS-2 Electrical Resistance System (Burlington, MA, USA) every other day. Only wells with a TEER value of >400 Ω/cm^2 were used for transport experiments. Moreover, the TEER value was measured before and after the transport experiment to ascertain that the Caco-2 cell layer remained intact during the whole transport experiment.
# (§3) Transport experiments were performed after 20 days of differentiation of the Caco-2 cells. The culture medium was replaced with HBSS (containing 1% (v/v) HEPES) 30 min prior to testing in both the apical and basolateral compartments. After the 30 min preincubation, 100 μL of HBSS containing a mixture of the 10 different AGEs including CML, CEL, GALA, argpyrimidine, MG-H1, GOLD, GOLA, MOLD, pentosidine, and pyrraline, each at 100 μmol/L, was added to the apical compartment after removing the preincubation medium, while the basolateral medium was replaced by 600 μL of HBSS. […] At 120 min, a 10 μL sample from the apical side was taken for calculating apical side retention (nontransported percentage).
# (§4) The apparent permeability coefficient (Papp) value was calculated according to the methodology described by Yee.
# (§5) AGEs were quantified by LC-MS using a Shimadzu Nexera XR LC-40D XR UPLC system (Kyoto, Japan) equipped with a UPLC Amide column (100 mm × 2.1 mm, 1.7 μm) without derivatization coupled with a Shimadzu LCMS-8045 triple quadrupole mass spectrometer (Kyoto, Japan). The analytical column was maintained at 40 °C throughout the quantification process. A multistep binary gradient system of water containing 0.1% (v/v) formic acid (solvent A) and acetonitrile containing 0.1% (v/v) formic acid (solvent B) was used. In the whole gradient program, the total proportion of solvents A and B is always equal to 100%. The gradient program was designed as follows: 75% solvent B to 12.5% solvent B from 0 to 10 min, followed by 12.5% solvent B from 10 to 11 min. […] The initial flow rate was set to 0.30 mL/min. Subsequently, it was reduced to 0.25 mL/min at 0.3 min, which was kept until 10 min. Afterward, there was a gradual decrease, reaching 0.15 mL/min at 11 min, and this rate was maintained until 12 min. […] Between 1 and 11 min of gradient running, the line was set to MS, and for the other time periods, the line was set to waste. The retention time and mass spectrometry parameters of individual AGEs are listed in Table S1 and the chromatograms of the samples are shown in Figure S1.
# Caco-2 cell layer = assay: as above; format: in vitro ADME, Human; details: mixture, each AGE 100 μmol/L, 2 h
# Protocol: as §1, §2, §3, §4, §5
# PepT1 = assay: as above; format: in vitro ADME, Human; details: human, mixture, each AGE 100 μmol/L; for recovery at 2 h, 100 μmol/L: Caco-2, with Gly-Sar 10 mmol/L (apical compartment), Gly-Sar 10 mmol/L, read-out: percentage of the amount added at the apical side at t = 0: recovery; for Papp at 120 min, 100 μmol/L: Caco-2, with Gly-Sar 10 mmol/L (apical), 10 mmol/L Gly-Sar apical (PepT1 inhibition), data from 120 min
# Protocol: as §1, §2, §3, §4, §5
# Caco-2 cell monolayer = assay: Accumulation of AGEs in the Caco-2 cell monolayer after transport experiment; format: in vitro ADME, Human; details: mixture, each AGE 100 μmol/L, 2 h
# Protocol: After the transport experiment, the cell monolayer on the inset membrane was washed three times with HBSS and three times with PBS. […] The samples were subsequently centrifuged at 16 000g for 20 min at 4 °C, and the supernatant was collected for further analysis by LC-MS.
# as §5, with “The” for “AGEs were quantified by LC-MS using a Shimadzu Nexera XR LC-40D XR UPLC system (Kyoto, Japan) equipped with a UPLC Amide column (100 mm × 2.1 mm, 1.7 μm) without derivatization coupled with a Shimadzu LCMS-8045 triple quadrupole mass spectrometer (Kyoto, Japan). The”, “100%.” for “100%. The gradient program was designed as follows: 75% solvent B to 12.5% solvent B from 0 to 10 min, followed by 12.5% solvent B from 10 to 11 min.”
# [3] = Caco-2, 4 °C, mixture, each AGE 100 μmol/L
# [4] = Caco-2, cytochalasin D pretreatment, mixture, each AGE 100 μmol/L
# [5] = Caco-2, standard treatment (37 °C), equimolar mixture of 10 AGEs, each 100 μmol/L apical
# [6] = Caco-2, standard treatment, mixture, each AGE 100 μmol/L
# [7] = Caco-2, cytochalasin D 1 μg/mL, 30 min apical preincubation, mixture, each AGE 100 μmol/L
SMILES,concentration that did not significantly affect cell viability [1],"recovery at 2 h, 100 μmol/L [2, 3]","Papp at 120 min, 100 μmol/L [2, 3]","recovery at 2 h, 100 μmol/L [2, 4]","Papp at 120 min, 100 μmol/L [2, 5]","recovery at 2 h, 100 μmol/L [2, 6]","Papp at 120 min, 100 μmol/L [2, 7]",percentage of the amount added at the apical side at t = 0: apical side (Caco-2 cell layer; 4 °C),percentage of the amount added at the apical side at t = 0: basolateral side (Caco-2 cell layer; 4 °C),percentage of the amount added at the apical side at t = 0: apical side (Caco-2 cell layer; Gly-Sar 10 mmol/L),percentage of the amount added at the apical side at t = 0: basolateral side (Caco-2 cell layer; Gly-Sar 10 mmol/L),percentage of the amount added at the apical side at t = 0: apical side (Caco-2 cell layer; cytochalasin D pretreatment),percentage of the amount added at the apical side at t = 0: basolateral side (Caco-2 cell layer; cytochalasin D pretreatment),percentage of the amount added at the apical side at t = 0: apical side (nontransported) (Caco-2 cell layer; standard treatment),"recovery at 2 h, 100 μmol/L (PepT1)","Papp at 120 min, 100 μmol/L (PepT1)",percentage of the amount added at the apical side at t = 0: accumulation (Caco-2 cell monolayer; 4 °C),percentage of the amount added at the apical side at t = 0: accumulation (Caco-2 cell monolayer; Gly-Sar 10 mmol/L),percentage of the amount added at the apical side at t = 0: accumulation (Caco-2 cell monolayer; cytochalasin D pretreatment),also measured
"Cc1c[n+](CCCC[C@H](N)C(=O)O)cn1CCCC[C@H](N)C(=O)O [MOLD, methylglyoxal–lysine dimer]",≤ 1500 µM,83.1 ± 6.5%,0.057 ×10⁻⁶ cm/s,91.7 ± 12.6%,0.098 ×10⁻⁶ cm/s,90.8 ± 7.9%,0.34 ×10⁻⁶ cm/s,83.0 ± 6.5 ^b %,0.1 ± 0.1 ^b %,93.5 ± 7.2 ^a %,0.3 ± 0.2 ^b %,90.8 ± 12.2 ^ab %,0.8 ± 0.6 ^a %,90.6 ± 7.7 ^ab %,93.8 ± 7.2%,0.11 ×10⁻⁶ cm/s,0.0 ± 0.0 ^a %,0.0 ± 0.1 ^a %,0.0 ± 0.1 ^a %,percentage of the amount added at the apical side at t = 0: basolateral side (transported) (Caco-2 cell layer; standard treatment): 0.2 ± 0.2 ^b %
Cc1nc(NCCC[C@H](N)C(=O)O)nc(C)c1O [argpyrimidine],≤ 500 µM,87.4 ± 5.4%,0.099 ×10⁻⁶ cm/s,94.7 ± 5.4%,0.145 ×10⁻⁶ cm/s,91.8 ± 5.9%,0.395 ×10⁻⁶ cm/s,87.1 ± 5.4 ^b %,0.2 ± 0.1 ^b %,93.8 ± 5.0 ^a %,0.3 ± 0.1 ^b %,93.3 ± 5.2 ^a %,0.9 ± 0.6 ^a %,91.2 ± 5.9 ^ab %,94.6 ± 5.2%,0.141 ×10⁻⁶ cm/s,0.0 ± 0.0 ^b %,0.5 ± 0.2 ^a %,0.5 ± 0.3 ^a %,percentage of the amount added at the apical side at t = 0: accumulation (intracellular) (Caco-2 cell monolayer; standard treatment): 0.2 ± 0.2 ^b %
